Counter-ions that a name gives are not always drawn. Like-named read-outs stand apart in the source and are kept apart here.
How the values were obtained:
rh-AChE = rh-AChE (Homo sapiens, UniProt P22303); experiment: biochemical
rh-BuChE = rh-BuChE (Homo sapiens, UniProt P06276); experiment: IC50 rh-BuChE; format: biochemical
erythrocyte h-AChE = molecular target: T1, erythrocyte h-AChE (Homo sapiens, UniProt P22303); experiment: IC50 erythrocyte h-AChE; format: biochemical
T1 construct: from tissue; host or cells: human erythrocytes

[1] = read-out: IC50 erythrocyte h-AChE

Sequence of rh-AChE (P22303 32-614): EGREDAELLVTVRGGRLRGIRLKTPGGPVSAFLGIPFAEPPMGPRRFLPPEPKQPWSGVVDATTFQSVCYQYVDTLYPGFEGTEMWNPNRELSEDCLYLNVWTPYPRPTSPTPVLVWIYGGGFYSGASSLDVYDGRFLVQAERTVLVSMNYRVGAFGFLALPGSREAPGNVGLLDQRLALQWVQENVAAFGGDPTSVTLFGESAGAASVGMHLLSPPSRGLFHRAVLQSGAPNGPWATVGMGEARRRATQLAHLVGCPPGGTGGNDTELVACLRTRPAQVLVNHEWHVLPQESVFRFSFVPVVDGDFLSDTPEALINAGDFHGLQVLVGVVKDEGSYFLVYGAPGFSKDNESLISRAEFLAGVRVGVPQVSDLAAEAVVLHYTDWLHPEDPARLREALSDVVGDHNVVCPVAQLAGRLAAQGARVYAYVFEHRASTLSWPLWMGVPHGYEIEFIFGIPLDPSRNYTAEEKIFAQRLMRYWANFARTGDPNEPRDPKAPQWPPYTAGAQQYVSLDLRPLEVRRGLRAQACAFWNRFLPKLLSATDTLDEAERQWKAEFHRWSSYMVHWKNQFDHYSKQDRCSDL
T1 sequence (P22303 32-617 isoform P22303-2 limits assumed): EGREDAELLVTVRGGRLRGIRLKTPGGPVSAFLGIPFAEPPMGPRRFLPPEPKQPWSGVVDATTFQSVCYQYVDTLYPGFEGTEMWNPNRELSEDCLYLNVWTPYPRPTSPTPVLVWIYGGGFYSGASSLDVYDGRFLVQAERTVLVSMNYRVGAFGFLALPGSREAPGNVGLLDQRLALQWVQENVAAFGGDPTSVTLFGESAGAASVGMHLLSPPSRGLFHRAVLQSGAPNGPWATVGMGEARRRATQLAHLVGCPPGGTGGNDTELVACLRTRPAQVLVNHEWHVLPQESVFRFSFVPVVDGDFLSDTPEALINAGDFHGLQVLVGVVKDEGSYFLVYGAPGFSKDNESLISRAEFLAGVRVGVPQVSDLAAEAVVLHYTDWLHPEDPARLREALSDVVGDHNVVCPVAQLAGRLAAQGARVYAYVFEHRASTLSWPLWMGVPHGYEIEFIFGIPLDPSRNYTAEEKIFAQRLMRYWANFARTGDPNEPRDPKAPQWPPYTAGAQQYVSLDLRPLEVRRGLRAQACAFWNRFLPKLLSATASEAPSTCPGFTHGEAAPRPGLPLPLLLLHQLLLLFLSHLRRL
Sequence of rh-BuChE (P06276 29-602): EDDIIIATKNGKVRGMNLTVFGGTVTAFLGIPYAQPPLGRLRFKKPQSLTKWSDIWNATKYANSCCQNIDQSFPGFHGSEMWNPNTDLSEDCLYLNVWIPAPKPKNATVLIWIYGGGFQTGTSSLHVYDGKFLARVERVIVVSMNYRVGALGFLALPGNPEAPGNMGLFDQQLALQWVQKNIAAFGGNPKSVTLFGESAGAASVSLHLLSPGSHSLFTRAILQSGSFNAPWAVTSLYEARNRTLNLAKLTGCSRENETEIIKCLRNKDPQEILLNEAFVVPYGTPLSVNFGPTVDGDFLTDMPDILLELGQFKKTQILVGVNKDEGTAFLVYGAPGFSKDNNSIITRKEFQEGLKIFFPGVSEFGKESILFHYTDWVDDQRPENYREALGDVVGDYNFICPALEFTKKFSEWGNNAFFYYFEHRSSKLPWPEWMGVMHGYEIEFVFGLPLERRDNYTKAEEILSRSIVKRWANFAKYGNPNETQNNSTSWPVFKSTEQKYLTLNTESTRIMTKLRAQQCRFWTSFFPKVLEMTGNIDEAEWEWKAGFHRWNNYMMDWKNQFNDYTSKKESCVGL

| Compound | IC50 (rh-AChE; read-out: IC50 rh-AChE) [nM] | IC50 (rh-BuChE; read-out: IC50 rh-BuChE) [nM] | other results |
| --- | --- | --- | --- |
| [N-]=[N+]=NCCCCC1=CC2Cc3nc4cc(Cl)ccc4c(N)c3C(C1)C2 (centres unmarked) [HUP 32, 9-(4-Azidobutyl)-3-chloro-6,7,10,11-tetrahydro-7,11-methanocycloocta[b]quinolin-12-amine] | 13.1 ± 4.7 | 260 ± 12 | IC50 (erythrocyte h-AChE; [1]): 68.1 nM |
| CCOC(=O)C(CCC1=CC2Cc3nc4cc(Cl)ccc4c(N)c3C(C1)C2)C(=O)OCC (centres unmarked) [HUP 27, Diethyl[2-(12-Amino-3-chloro-6,7,10,11-tetrahydro-7,11-methanocycloocta[b]quinolin-9-yl)ethyl]malonate] | 6.09 ± 0.42 | – | IC50 (rh-BuChE): 319 ± 2 nM; IC50 (erythrocyte h-AChE): 46.4 nM |
| CN(C)C(=O)CC1=CC2Cc3nc4cc(Cl)ccc4c(N)c3C(C1)C2 (centres unmarked) [HUP 19, 2-(12-Amino-3-chloro-6,7,10,11-tetrahydro-7,11-methanocycloocta[b]quinolin-9-yl)-N,N-dimethylacetamide Trifluoroacetic Acid] | 26.3 ± 1.7 | 2760 | – |
| C=C1c2nc3cc(Cl)ccc3c(N)c2C2CC(CCCCO)=CC1C2 (centres unmarked) [HUP 37, 4-(12-Amino-3-chloro-6-methylene-6,7,10,11-tetrahydro-7,11-methanocycloocta[b]quinolin-9-yl)butan-1-ol Trifluoroacetic Acid] | 256 ± 34 | – | – |
| [N-]=[N+]=NCCC1=CC2Cc3nc4cc(Cl)ccc4c(N)c3C(C1)C2 (centres unmarked) [HUP 12, 9-(2-Azidoethyl)-3-chloro-6,7,10,11-tetrahydro-7,11-methanocycloocta[b]quinolin-12-amine] | 5.56 ± 0.82 | 522 ± 120 | – |
| Nc1c2c(nc3cc(Cl)ccc13)CC1C=C(CCOC(=O)C(F)(F)F)CC2C1 (centres unmarked) [HUP 5, 2-(12-Amino-3-chloro-6,7,10,11-tetrahydro-7,11-methanocycloocta[b]quinolin-9-yl)ethyl Trifluoroacetate] | 1.69 ± 0.16 | 1360 | IC50 (erythrocyte h-AChE; [1]): 27.5 nM |
| Nc1c2c(nc3cc(Cl)ccc13)CC1C=C(CCCl)CC2C1 (centres unmarked) [HUP 9, 3-Chloro-9-(2-chloroethyl)-6,7,10,11-tetrahydro-7,11-methanocycloocta[b]quinolin-12-amine Trifluoroacetic Acid] | 3.56 ± 0.2 | 207 ± 12 | IC50 (erythrocyte h-AChE; [1]): 5.09 nM |
| NC(=O)OCCC1=CC2Cc3nc4cc(Cl)ccc4c(N)c3C(C1)C2 (centres unmarked) [HUP 17, 2-(12-Amino-3-chloro-6,7,10,11-tetrahydro-7,11-methanocycloocta[b]quinolin-9-yl)ethyl Carbamate Trifluoroacetic Acid] | 18.5 ± 2.2 | 413 ± 40 | – |
| COC(=O)c1cn(CCC2=CC3Cc4nc5cc(Cl)ccc5c(N)c4C(C2)C3)nn1 (centres unmarked) [HUP 22, Methyl 1-[2-(12-amino-3-chloro-6,7,10,11-tetrahydro-7,11-methanocycloocta[b]quinolin-9-yl)ethyl]-1H-1,2,3-triazole-4-carboxylate] | 130 ± 15 | – | – |
| CN(C)CCC1=CC2Cc3nc4cc(Cl)ccc4c(N)c3C(C1)C2 (centres unmarked) [HUP 21, 3-Chloro-9-[2-(dimethylamino)ethyl]-6,7,10,11-tetrahydro-7,11-methano cycloocta[b]quinolin-12-amine Ditrifluoroacetic Acid] | 97 ± 10 | – | IC50 (rh-BuChE): 2910 nM |
| Nc1c2c(nc3cc(Cl)ccc13)CC1C=C(CCC(CO)CO)CC2C1 (centres unmarked) [HUP 28, 2-[2-(12-Amino-3-chloro-6,7,10,11-tetrahydro-7,11-methanocycloocta[b]quinolin-9-yl)ethyl]propane-1,3-diol Trifluoroactic Acid] | 24.7 ± 1.2 | – | IC50 (erythrocyte h-AChE; [1]): 40.2 nM |
| C[N+](C)(C)CCC1=CC2Cc3nc4cc(Cl)ccc4c(N)c3C(C1)C2 (centres unmarked) [HUP 25, 2-(12-Amino-3-chloro-6,7,10,11-tetrahydro-7,11-methanocycloocta[b]quinolin-9-yl)-N,N,N-trimethylethanaminium Ditrifluoroacetic Acid] | 262 ± 22 | – | – |
| COc1cc2c(cc1OC)C(c1ccccc1)N(CCCCc1cn(CCCCC3=CC4Cc5nc6cc(Cl)ccc6c(N)c5C(C3)C4)nn1)CC2 (centres unmarked) [HUP32-PIQ4, 3-Chloro-9-(4-{4-[4-(6,7-dimethoxy-1-phenyl-3,4-dihydroisoquinolin-2(1H)-yl)butyl]-1H-1,2,3-triazol-1-yl}butyl)-6,7,10,11-tetrahydro-7,11-methanocycloocta[b]quinolin-12-amine Ditrifluoroacetic Acid] | 0.78 ± 0.1 | 9.5 ± 0.6 | – |
| N#CCCC1=CC2Cc3nc4cc(Cl)ccc4c(N)c3C(C1)C2 (centres unmarked) [HUP 8, 3-(12-Amino-3-chloro-6,7,10,11-tetrahydro-7,11-methanocycloocta[b]quinolin-9-yl)propanenitrile Trifluoroacetic Acid] | 3.15 ± 0.42 | 514 ± 58 | – |
| Nc1c2c(nc3cc(Cl)ccc13)CC1C=C(CCF)CC2C1 (centres unmarked) [HUP 10, 3-Chloro-9-(2-fluoroethyl)-6,7,10,11-tetrahydro-7,11-methanocycloocta[b]quinolin-12-amine] | 4.16 ± 0.79 | 522 ± 120 | – |
| C=CC1=CC2Cc3nc4cc(Cl)ccc4c(N)c3C(C1)C2 (centres unmarked) [HUP 3, 3-Chloro-9-vinyl-6,7,10,11-tetrahydro-7,11-methanocycloocta[b]quinolin-12-amine Trifluoroacetic Acid] | 1.32 ± 0.17 | 180 ± 13 | IC50 (erythrocyte h-AChE; [1]): 405 nM |

| Compound | IC50 (rh-AChE; read-out: IC50 rh-AChE) [nM] | IC50 (rh-BuChE; read-out: IC50 rh-BuChE) [nM] | other results |
| --- | --- | --- | --- |
| NNCCC1=CC2Cc3nc4cc(Cl)ccc4c(N)c3C(C1)C2 (centres unmarked) [HUP 14, 3-Chloro-9-(2-hydrazinoethyl)-6,7,10,11-tetrahydro-7,11-methanocyclo octa[b]quinolin-12-amine Ditrifluoroacetic Acid] | 9.5 ± 2.7 | – | IC50 (rh-BuChE): 668 ± 110 nM |
| COc1cc2c(cc1OC)C(c1ccccc1)N(CCCc1cn(CCCCC3=CC4Cc5nc6cc(Cl)ccc6c(N)c5C(C3)C4)nn1)CC2 (centres unmarked) [HUP32-PIQ3, 3-Chloro-9-(4-{4-[3-(6,7-dimethoxy-1-phenyl-3,4-dihydroisoquinolin-2(1H)-yl)propyl]-1H-1,2,3-triazol-1-yl}butyl)-6,7,10,11-tetrahydro-7,11-methanocycloocta[b]quinolin-12-amine Ditrifluoroacetic Acid] | 0.61 ± 0.1 | 11.4 ± 0.6 | – |
| COc1cc2c(cc1OC)C(c1ccccc1)N(Cc1cn(CCCCC3=CC4Cc5nc6cc(Cl)ccc6c(N)c5C(C3)C4)nn1)CC2 (centres unmarked) [HUP32-PIQ1, 3-Chloro-9-(4-{4-[(6,7-dimethoxy-1-phenyl-3,4-dihydroisoquinolin-2(1H)-yl)methyl]-1H-1,2,3-triazol-1-yl}butyl)-6,7,10,11-tetrahydro-7,11-methanocycloocta[b]quinolin-12-amine Ditrifluoroacetic Acid] | 3.31 ± 0.2 | 20.6 ± 0.2 | – |
| NC(=O)CC1=CC2Cc3nc4cc(Cl)ccc4c(N)c3C(C1)C2 (centres unmarked) [HUP 20, 2-(12-Amino-3-chloro-6,7,10,11-tetrahydro-7,11-methanocycloocta[b]quinolin-9-yl)acetamide Trifluoroacetic Acid] | 29.3 ± 3.7 | – | – |
| CC(=O)OCCC1=CC2Cc3nc4cc(Cl)ccc4c(N)c3C(C1)C2 (centres unmarked) [HUP 4, 2-(12-Amino-3-chloro-6,7,10,11-tetrahydro-7,11-methanocycloocta[b]quinolin-9-yl)ethyl Acetate] | 1.44 ± 0.18 | – | IC50 (erythrocyte h-AChE; [1]): 12 nM |
| Nc1c2c(nc3cc(Cl)ccc13)CC1C=C(CCNO)CC2C1 (centres unmarked) [HUP 15, 3-Chloro-9-[2-(hydroxyamino)ethyl]-6,7,10,11-tetrahydro-7,11-methano cycloocta[b]quinolin-12-amine Ditrifluoroacetic Acid] | 18.5 ± 2.2 | – | – |
| C=C1c2nc3cc(Cl)ccc3c(N)c2C2CC(CCCC(=O)OCC)=CC1C2 (centres unmarked) [HUP 36, Ethyl 4-(12-Amino-3-chloro-6-methylene-6,7,10,11-tetrahydro-7,11-methanocycloocta[b]quinolin-9-yl)butanoate] | 90.6 ± 8.4 | – | – |
| CS(=O)(=O)OCCC1=CC2Cc3nc4ccccc4c(N)c3C(C1)C2 (centres unmarked) [HUP 39, 2-(12-Amino-6,7,10,11-tetrahydro-7,11-methanocycloocta[b]quinolin-9-yl) Ethyl Methanesulfonate] | 149 ± 6 | 171 ± 4 | – |
| CS(=O)(=O)OCCC1=CC2Cc3nc4cc(Cl)ccc4c(N)c3C(C1)C2 (centres unmarked) [HUP 13, 2-(12-Amino-3-chloro-6,7,10,11-tetrahydro-7,11-methanocycloocta[b]quinolin-9-yl) Ethyl Methanesulfonate] | 8.5 ± 1.1 | 415 ± 97 | – |
| Nc1c2c(nc3cc(Cl)ccc13)CC1C=C(CCI)CC2C1 (centres unmarked) [HUP 7, 3-Chloro-9-(2-iodoethyl)-6,7,10,11-tetrahydro-7,11-methanocycloocta[b]quinolin-12-amine] | 2.7 ± 0.82 | 141 ± 7 | – |
| CC(C)(C)OC(=O)ON(CCC1=CC2Cc3nc4cc(Cl)ccc4c(N)c3C(C1)C2)C(=O)OC(C)(C)C (centres unmarked) [HUP 16, Tert-butyl[2-(12-amino-3-chloro-6,7,10,11-tetrahydro-7,11-methanocycloocta[b]quinolin-9-yl)ethyl][(tert-butoxycarbonyl)oxy]carbamate] | 14.8 ± 3.2 | 421 ± 72 | – |
| Nc1c2c(nc3cc(Cl)ccc13)CC1C=C(CCCCn3cc(COC(=O)C(F)(F)F)nn3)CC2C1 (centres unmarked) [HUP 35, {1-[4-(12-Amino-3-chloro-6,7,10,11-tetrahydro-7,11-methanocycloocta[b]quinolin-9-yl)butyl]-1H-1,2,3-triazol-4-yl}methyl Trifluoroacetate] | 34.6 ± 2.6 | – | IC50 (erythrocyte h-AChE; [1]): 69.8 nM |
| Nc1c2c(nc3ccccc13)CC1C=C(CCCCn3cc(CO)nn3)CC2C1 (centres unmarked) [HUP 38, {1-[4-(12-Amino-6,7,10,11-tetrahydro-7,11-methanocycloocta[b]quinolin-9-yl)butyl]-1H-1,2,3-triazol-4-yl}methanol Trifluoroacetic Acid] | 94.1 ± 2.8 | 357 ± 16 | – |
| Nc1c2c(nc3cc(Cl)ccc13)CC1C=C(CC(=O)O)CC2C1 (centres unmarked) [HUP 11, 12-Amino-3-chloro-9-carboxymethyl-6,7,10,11-tetrahydro-7,11 methanocycloocta[b]quinoline Hydrochloride] | – | – | IC50 (rh-AChE): 5.3 ± 1.1 nM |
| Nc1c2c(nc3cc(Cl)ccc13)CC1C=C(CCn3cc(CO)nn3)CC2C1 (centres unmarked) [HUP 23, {1-[2-(12-Amino-3-chloro-6,7,10,11-tetrahydro-7,11-methanocycloocta[b]quinolin-9-yl)ethyl]-1H-1,2,3-triazol-4-yl}methanol Trifluoroacetic Acid] | 210 ± 28 | – | – |
